This is an account of results in publication PMC11111955, “Safety and efficacy evaluation of halicin as an effective drug for inhibiting intestinal infections” (Frontiers in Pharmacology, 2024).

Bounds are passed on as bounds.

One may read the Cmax as the maximum level reached in the sampled fluid or tissue. What is called Tmax is the time at which the peak concentration occurs. By Vd/F is commonly meant the volume of distribution divided by bioavailability.

The subject of data set [1] is Salmonella typhimurium strains TA97, TA98, TA100, and WP2uvrApKM101. The data set is described as follows: Ames test, all strains as summarised in the text. Background: The Ames test uses bacterial strains that need an amino acid and regain growth without it when mutated back.
The nature of data set [2]: Pharmacokinetics of halicin in rat (oral).

Consider `Nc1nnc(Sc2ncc([N+](=O)[O-])s2)s1` [halicin], for which, in data set [1] (22.5 μg/plate, due to antibacterial effect), the “bacterial counts of the four strains” value is listed as “significantly decreased”. The “mutagenicity in the Ames test” value in data set [1] (concentrations below 11.2 μg/plate, with or without S9) is given as “non-mutagenic”. Further, in data set [2] (High dose (50 mg/kg)), the “AUC0-last” value was determined as 459.58 ± 34.53 ng·h/mL, the “AUC0-∞” value stood at 510.86 ± 46.62 ng·h/mL, the “Cl/F” value was determined as 983.0528 ± 117.355 mL/min/kg and the “Cmax” value is listed as 64.25 ± 1.98 ng/mL. Also, in data set [2] (High dose (50 mg/kg)), the “MRTlast” value came out at 5.85 ± 0.13 h, the “T1/2λz” value was 8.57 ± 0.22 h, the “Tmax” value worked out at 1.33 ± 1.41 h and the “Vd/F” value came to 828.26908 ± 70.84029 L/kg. Moreover, in data set [2] (High dose (50 mg/kg)), the “λz” value was 0.085 ± 0.0016 h⁻¹. In data set [2] (Low dose (10 mg/kg)), the “AUC0-last” value came out at 318.05 ± 31.27 ng·h/mL, the “AUC0-∞” value was 395.88 ± 42.41 ng·h/mL, the “Cl/F” value was 422.673 ± 44.3642 mL/min/kg and the maximum concentration (Cmax) is 40.99 ± 2.37 ng/mL. Besides, in data set [2] (Low dose (10 mg/kg)), the “MRTlast” value was 7.58 ± 0.41 h, the “T1/2λz” value worked out at 10.32 ± 2.22 h, the “Tmax” value was 1.33 ± 1.41 h and the “Vd/F” value stood at 375.07455 ± 41.94437 L/kg. Also, the “λz” value in data set [2] (Low dose (10 mg/kg)) stood at 0.068 ± 0.016 h⁻¹. Moreover, the “drug concentration in the blood” value in data set [2] (at 24 h after drug administration) is listed as not above 5 ng/mL. In addition, the “absorption and elimination in vivo” value in data set [2] (drug metabolism experiments) was “poorly absorbed and quickly eliminated”.
